Assay results reported in patent US20040076673A1, “Oral pharmaceutical composition containing a block copolymer” (priority 2000, published 2004).
In brackets after ≈: the same amount, converted by molar mass.

How the values were obtained:
Solubility Measurements = format: physicochemical
[1] = pH shift dissolution method (0.1N HCl, then shift to pH 6.5); format: physicochemical; details: in vitro tests; with block copolymers versus without
Procedure: pH Shift Dissolution Method
The formulations were weighed into hard gelatin capsules (equivalent to 25 mg drug) and dissoluted in 500 ml 0.1N HCl for one hour at 37° C. (paddle speed 100 rpm). A 5 ml sample was taken at 55 minutes and the media replaced. After one hour 10 ml of a 2.5M KH2PO4/16.72% (w/v) NaOH solution was added to the HCl to shift the pH to 6.5. 5 ml samples were then removed with a plastic syringe at 5, 15, 30, 45 and 60 minutes and media replaced after every sampling time point. Each sample was centrifuged (14,000 rpm) at ambient temperature for 15 minutes and then analysed by HPLC using the following conditions: […]

## O=C(c1ccc(-c2ccncc2)cc1)N1CCN(S(=O)(=O)c2ccc3cc(Cl)ccc3c2)CC1 [Compound 1, 1-(6-chloronaphth-2-ylsulfonyl)-4-[4-(4-pyridyl)benzoyl] piperazine]
Solubility Measurements; pH 1.2, simulated gastric fluid
  solubility: 250 µg/mL (≈ 508 µM)
Solubility Measurements; pH 6.8, aqueous buffer
  solubility: 2 µg/mL (≈ 4.07 µM)
Solubility Measurements; water
  solubility: < 5 µg/mL
[1]
  improvement of maximum supersaturated concentration by use of the polymers: 4-10 times
